What was measured:
[1] = target: T1, recombinant human ALK5 (TGF-βR1) protein (Homo sapiens, UniProt P36897); assay: Biochemical ALK5 (TGF-βR1) assay to measure pKi (LANCE Ultra ULight kinase assay); conditions: apparent pKi from pIC50 by Cheng-Prusoff, read-out: ALK5 pKi (converted)
T1 construct: purchased Life Technologies PR9075A
T1 sequence (P36897 34-503): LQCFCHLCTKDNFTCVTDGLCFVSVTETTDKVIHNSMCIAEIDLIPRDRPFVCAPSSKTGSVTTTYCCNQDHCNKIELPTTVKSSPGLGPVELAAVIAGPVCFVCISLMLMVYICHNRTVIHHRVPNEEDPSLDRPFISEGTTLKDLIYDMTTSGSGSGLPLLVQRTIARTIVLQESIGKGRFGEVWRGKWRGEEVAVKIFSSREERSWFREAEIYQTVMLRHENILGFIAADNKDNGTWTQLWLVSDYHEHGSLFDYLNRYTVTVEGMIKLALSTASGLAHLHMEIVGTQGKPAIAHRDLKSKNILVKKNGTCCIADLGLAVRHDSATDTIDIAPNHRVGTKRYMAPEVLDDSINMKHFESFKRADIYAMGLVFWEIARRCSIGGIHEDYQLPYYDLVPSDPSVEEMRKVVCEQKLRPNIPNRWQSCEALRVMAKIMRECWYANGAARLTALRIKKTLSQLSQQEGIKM
How it was run: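 After a 60 min room-temperature preincubation of ALK5 with compound, phosphorylation proceeds 60 min at 37 °C on ATP addition (125 μM as 5× stock). Detection: Eu-labelled phospho-Thr1342 Topo IIα antibody in EDTA buffer, pH 7.0; emission 665 nm.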

[2] = tested on: TGF-β-stimulated SMAD3 phosphorylation in BEAS-2B cells; assay: Cellular ALK5 potency assay, inhibition of TGF-β stimulated pSMAD3 formation in BEAS-2B cells; assay type: cell-based; conditions: Homo sapiens; inhibition of TGF-β stimulated pSMAD3 formation, BEAS-2B cells; read-out: BEAS2B pIC50 (converted)
How it was run: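 AlphaLISA pSMAD3 read-out, beads incubated overnight. Human BEAS-2B cells: 1 h compound preincubation (37 °C, 5% CO2), then 30 min TGF-β at 10 ng/mL final, immediate lysis. Values are pIC50 relative to stimulated, compound-free baseline.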

| Ki [1] [nM] | Structure (SMILES) | IC50 [2] [nM] |
| --- | --- | --- |
| < 0.0316 | Cc1cccc(-c2n[nH]cc2-c2ccc3ncc(-c4cncs4)cc3n2)n1 [Compound 190, 5-[6-[3-(6-methyl-2-pyridyl)-1H-pyrazol-4-yl]-1,5-naphthyridin-3-yl]thiazole] | < 20 |
| 0.0398 to 0.316 | Cc1cccc(-c2nnn(Cc3ccccc3)c2-c2ccc3ncc(N4CCC(N(C)C)C4)cc3c2)n1 (stereo not shown) [Compound 191, 1-[6-[3-benzyl-5-(6-methyl-2-pyridyl)triazol-4-yl]-3-quinolyl]-N,N-dimethyl-pyrrolidin-3-amine] | 25.1 to 158 |
| < 0.0316 | Cc1nc(-c2n[nH]cc2-c2ccc3ncc(-c4cnn(CCN)c4)cc3n2)ccc1F [Compound 192, 2-[4-[6-[3-(5-fluoro-6-methyl-2-pyridyl)-1H-pyrazol-4-yl]-1,5-naphthyridin-3-yl]pyrazol-1-yl]ethanamine] | < 20 |
| 0.0398 to 0.316 | Cc1cccc(-c2n[nH]cc2-c2ccc3ncc(N4CC(N)C4)cc3n2)n1 [Compound 193, 1-[6-[3-(6-methyl-2-pyridyl)-1H-pyrazol-4-yl]-1,5-naphthyridin-3-yl]azetidin-3-amine] | 25.1 to 158 |
| 0.398 to 3.16 | Cc1cccc(-c2[nH]ncc2-c2ccc3ncc(C(=O)O[C@@H]4CCNC4)cc3n2)n1 [Compound 195, [(3R)-pyrrolidin-3-yl] 6-[5-(6-methyl-2-pyridyl)-1H-pyrazol-4-yl]-1,5-naphthyridine-3-carboxylate] | 25.1 to 158 |
| < 0.0316 | Cc1cccc(-c2[nH]cnc2-c2ccc3ncc(C4=CCC(N)CC4)cc3c2)n1 (stereo not shown) [Compound 196, 4-[6-[5-(6-methyl-2-pyridyl)-1H-imidazol-4-yl]-3-quinolyl]cyclohex-3-en-1-amine] | < 20 |
| 0.0398 to 0.316 | Cc1cccc(-c2[nH]cnc2-c2ccc3ncc(-c4cccc(C(=O)OC5CNC5)c4)cc3c2)n1 [Compound 197, azetidin-3-yl 3-[6-[5-(6-methyl-2-pyridyl)-1H-imidazol-4-yl]-3-quinolyl]benzoate] | 25.1 to 158 |
| 0.0398 to 0.316 | Cc1cccc(-c2n[nH]cc2-c2ccc3ncc(-c4cn5c(n4)CN(CCO)CC5)cc3n2)n1 [Compound 198, 2-[2-[6-[3-(6-methyl-2-pyridyl)-1H-pyrazol-4-yl]-1,5-naphthyridin-3-yl]-6,8-dihydro-5H-imidazo[1,2-a]pyrazin-7-yl]ethanol] | 25.1 to 158 |
| 0.0398 to 0.316 | Cc1cccc(-c2n[nH]cc2-c2ccc3ncc(NCC4CCCNC4)cc3n2)n1 (stereo not shown) [Compound 199, 6-[3-(6-methyl-2-pyridyl)-1H-pyrazol-4-yl]-N-(3-piperidylmethyl)-1,5-naphthyridin-3-amine] | 200 to 1260 |
| 0.0398 to 0.316 | Cc1cccc(-c2[nH]cnc2-c2ccc3ncc(NC4CC5(CNC5)C4)cc3c2)n1 [Compound 200, N-(2-azaspiro[3.3]heptan-6-yl)-6-[5-(6-methyl-2-pyridyl)-1H-imidazol-4-yl]quinolin-3-amine] | 200 to 1260 |
| 0.0398 to 0.316 | CC(C)N1CCN(CCNc2cnc3ccc(-c4c[nH]nc4-c4cccc(C(F)(F)F)n4)nc3c2)CC1 [Compound 201, N-(2-(4-isopropylpiperazin-1-yl)ethyl)-6-(3-(6-(trifluoromethyl)pyridin-2-yl)-1H-pyrazol-4-yl)-1,5-naphthyridin-3-amine] | 25.1 to 158 |
| 0.0398 to 0.316 | Cc1nc(-c2nc3ccccn3c2-c2ccc3ncc(-c4nnn5c4CNCC5)cc3n2)ccc1F [Compound 202, 2-[2-(5-fluoro-6-methyl-2-pyridyl)imidazo[1,2-a]pyridin-3-yl]-7-(4,5,6,7-tetrahydrotriazolo[1,5-a]pyrazin-3-yl)-1,5-naphthyridine] | 200 to 1260 |

Further lines, the compound ahead of its results:

| Structure (SMILES) | Ki [1] [nM] | IC50 [2] [nM] |
| --- | --- | --- |
| Cc1cccc(-c2n[nH]cc2-c2ccc3ncc(-c4cccc(C(=O)O)c4)cc3n2)n1 [Compound 172, 3-[6-[3-(6-methyl-2-pyridyl)-1H-pyrazol-4-yl]-1,5-naphthyridin-3-yl]benzoic acid] | < 0.0316 | 1580 to 10000 |
| Cc1nc(-c2n[nH]cc2-c2ccc3ncc(-c4[nH]nc5c4CNCC5)cc3n2)ccc1F [Compound 173, 2-[3-(5-fluoro-6-methyl-2-pyridyl)-1H-pyrazol-4-yl]-7-(4,5,6,7-tetrahydro-2H-pyrazolo[4,3-c]pyridin-3-yl)-1,5-naphthyridine] | 0.0398 to 0.316 | 200 to 1260 |
| Cc1nc(-c2n[nH]cc2-c2ccc3ncc(-c4ncc5n4CCN5)cc3n2)ccc1F [Compound 174, 7-(2,3-dihydro-1H-imidazo[1,2-c]imidazol-5-yl)-2-[3-(5-fluoro-6-methyl-2-pyridyl)-1H-pyrazol-4-yl]-1,5-naphthyridine] | 0.0398 to 0.316 | 200 to 1260 |
| Cc1cccc(-c2n[nH]cc2-c2ccc3ncc(-c4nc5c(s4)CNCC5)cc3n2)n1 [Compound 175, 2-[6-[3-(6-methyl-2-pyridyl)-1H-pyrazol-4-yl]-1,5-naphthyridin-3-yl]-4,5,6,7-tetrahydrothiazolo[5,4-c]pyridine] | 0.0398 to 0.316 | 25.1 to 158 |
| Cc1nc(-c2n[nH]cc2-c2ccc3ncc(-c4nc5n(n4)CCNC5)cc3n2)ccc1F [Compound 176, 2-[3-(5-fluoro-6-methyl-2-pyridyl)-1H-pyrazol-4-yl]-7-(5,6,7,8-tetrahydro-[1,2,4]triazolo[1,5-a]pyrazin-2-yl)-1,5-naphthyridine] | 0.0398 to 0.316 | 25.1 to 158 |
| Cc1cccc(-c2n[nH]cc2-c2ccc3ncc(-c4nn[nH]n4)cc3n2)n1 [Compound 177, 2-[3-(6-methyl-2-pyridyl)-1H-pyrazol-4-yl]-7-(2H-tetrazol-5-yl)-1,5-naphthyridine] | 0.0398 to 0.316 | 1580 to 10000 |
| Cc1cccc(-c2n[nH]cc2-c2ccc3ncc(-c4cnn(CCN5CCNCC5)c4)cc3n2)n1 [Compound 178, 2-[3-(6-methyl-2-pyridyl)-1H-pyrazol-4-yl]-7-[1-(2-piperazin-1-ylethyl)pyrazol-4-yl]-1,5-naphthyridine] | < 0.0316 | 25.1 to 158 |
| Cc1cccc(-c2[nH]cnc2-c2ccc3ncc(N4CC5(CCNCC5)C4)cc3c2)n1 [Compound 179, 3-(2,7-diazaspiro[3.5]nonan-2-yl)-6-[5-(6-methyl-2-pyridyl)-1H-imidazol-4-yl]quinoline] | 0.0398 to 0.316 | 25.1 to 158 |
| Cc1cccc(-c2[nH]cnc2-c2ccc3ncc(-c4cccc(NC5CNC5)n4)cc3c2)n1 [Compound 180, N-(azetidin-3-yl)-6-[6-[5-(6-methyl-2-pyridyl)-1H-imidazol-4-yl]-3-quinolyl]pyridin-2-amine] | 0.0398 to 0.316 | 1580 to 10000 |
| Cc1cccc(-c2n[nH]cc2-c2ccc3ncc(N(C)CC(=O)N4CCOCC4)cc3n2)n1 [Compound 181, 2-[methyl-[6-[3-(6-methyl-2-pyridyl)-1H-pyrazol-4-yl]-1,5-naphthyridin-3-yl]amino]-1-morpholino-ethanone] | 0.398 to 3.16 | 25.1 to 158 |
| Cc1cccc(-c2[nH]ncc2-c2ccc3ncc(C(=O)N(C)CCN4CCOCC4)cc3n2)n1 [Compound 182, N-methyl-6-[5-(6-methyl-2-pyridyl)-1H-pyrazol-4-yl]-N-(2-morpholinoethyl)-1,5-naphthyridine-3-carboxamide] | 3.98 to 31.6 | 200 to 1260 |
| Cc1cccc(-c2n[nH]cc2-c2ccc3ncc(NCCN4C(C)CNCC4C)cc3n2)n1 (stereo not shown) [Compound 183, N-[2-(2,6-dimethylpiperazin-1-yl)ethyl]-6-[3-(6-methyl-2-pyridyl)-1H-pyrazol-4-yl]-1,5-naphthyridin-3-amine] | 0.0398 to 0.316 | 200 to 1260 |
| Cc1cccc(-c2[nH]cnc2-c2ccc3ncc(NC4CCNC4)cc3c2)n1 (stereo not shown) [Compound 184, 6-[5-(6-methyl-2-pyridyl)-1H-imidazol-4-yl]-N-pyrrolidin-3-yl-quinolin-3-amine] | 0.0398 to 0.316 | 25.1 to 158 |
| Cc1nc(-c2n[nH]cc2-c2ccc3ncc(-c4cnn5c4CNCC5)cc3n2)ccc1F [Compound 185, 2-[3-(5-fluoro-6-methyl-2-pyridyl)-1H-pyrazol-4-yl]-7-(4,5,6,7-tetrahydropyrazolo[1,5-a]pyrazin-3-yl)-1,5-naphthyridine] | 0.0398 to 0.316 | < 20 |
| Cc1cccc(-c2n[nH]cc2-c2ccc3ncc(N4CC5CN(C(C)C)CC54)cc3n2)n1 (stereo not shown) [Compound 186, 7-(3-isopropyl-3,6-diazabicyclo[3.2.0]heptan-6-yl)-2-[3-(6-methyl-2-pyridyl)-1H-pyrazol-4-yl]-1,5-naphthyridine] | 0.398 to 3.16 | 25.1 to 158 |
| Cc1cccc(-c2[nH]cnc2-c2ccc3ncc(NC4CCNCC4)cc3c2)n1 [Compound 187, 6-[5-(6-methyl-2-pyridyl)-1H-imidazol-4-yl]-N-(4-piperidyl)quinolin-3-amine] | 0.0398 to 0.316 | 200 to 1260 |
| Cc1cccc(-c2[nH]cnc2-c2ccc3ncc(NCCNC4CNC4)cc3c2)n1 [Compound 189, N′-(azetidin-3-yl)-N-[6-[5-(6-methyl-2-pyridyl)-1H-imidazol-4-yl]-3-quinolyl]ethane-1,2-diamine] | 0.0398 to 0.316 | 200 to 1260 |

Reference: patent publication US11590116B2 (THERAVANCE BIOPHARMA R&D IP, LLC, priority 2019, dated 2023)
